Reference: paper PMC11109052, “Metabolism characterization and toxicity of N-hydap, a marine candidate drug for lung cancer therapy by LC–MS method” (Natural Products and Bioprospecting, 2024)
Where two headings read alike, the source gives them in different places.

Assays:
Cyp1a2 = assay: Real-time PCR mRNA level after 7 days gavage: Cyp1a2; type: in vivo; conditions: mice, 2, 5, 10 mg/kg p.o. 7 days; kidneys
Procedure: (§1) Mice were randomly divided into four groups, with eight animals in each group. The mice received oral pretreatment with N-hydap for 7 days at doses of 2, 5, and 10 mg/kg/day, which were considered as the low dose, medium dose, and high dose, respectively. Correspondingly, the control group received PBS. On the 8th day, the liver and kidneys were removed, and organs from eight mice per group were combined to prepare MLMs and MKMs using the detailed procedures above. Subsequently, we determined the activity of CYP and UGT enzymes by specific substrate metabolized with MLMs (0.5 mg/mL) and MKMs (0.2 mg/mL) in vitro. […] In the ex vivo experiments, the activity of enzymes was measured by quantifying the production of various metabolites (nM/mg protein/min). […] The measurements were performed using multiple reaction monitoring (MRM) transitions, which are specific mass spectrometry transitions used for quantification. […]
(§2) Total RNA from liver and kidney samples taken after 7 days of N-hydap gavage was extracted using the Animal Total RNA Isolation Kit (Foregene, Chengdu, Sichuan, China) following the manufacturer’s instructions. The concentrations of total RNA were determined by a nucleic acid concentration tester at 260/280 nm. […]

[1] = Stability in tissue homogenate; type: in vitro ADME
Procedure: The stability of the KPI solution was examined after storage at 4 °C for 24 h and incubation at 37 °C for 4 h, which was conducted using the QC samples at three concentrations (five samples for each concentration). Stability in plasma and tissue homogenate was assessed by testing samples stored at both 4 °C and room temperature for 24 h.

Ugt1a1 = assay: Western blot protein level after 7 days gavage: UGT1A1; type: in vivo; conditions: mice, p.o. 7 days; liver
Procedure: as §1
After 7 days of N-hydap gavage, the liver and kidney tissues were lysed using RIPA buffer supplemented with a 1% protease inhibitor cocktail. […] Western blot signals were detected using an ECL chemiluminescence detection agent. The relative intensity of each protein band was scanned and quantified using Image J software.

Ugt1a9 = assay: Real-time PCR mRNA level after 7 days gavage: Ugt1a9; type: in vivo, mice; design: key to UGT1A9 mNA expression: ↑: up-regulation; ↓: down-regulation; –: no change
Procedure: Mice were randomly divided into four groups, with eight animals in each group. The mice received oral pretreatment with N-hydap for 7 days at doses of 2, 5, and 10 mg/kg/day, which were considered as the low dose, medium dose, and high dose, respectively. Correspondingly, the control group received PBS. On the 8th day, the liver and kidneys were removed, and organs from eight mice per group were combined to prepare MLMs and MKMs using the detailed procedures above. Subsequently, we determined the activity of CYP and UGT enzymes by specific substrate metabolized with MLMs (0.5 mg/mL) and MKMs (0.2 mg/mL) in vitro. Specifically, the following selective substrates were used for the respective enzymes: PH (1 μM) for CYP1A2, DIC (1 μM) for CYP2C9, MP (90 μM) for CYP2C19, DM (1 μM) for CYP2D6, CZX (10 μM) for CYP2E1, Tes (1 μM) for CYP3A4, SN38 (1 μM) for UGT1A1, CACD (100 μM) for UGT1A3, Sero (20 μM) for UGT1A6, and Prop (1 μM) for UGT1A9. All substrates were dissolved in methanol or DMSO. The incubation procedure was carried out as mentioned above, and the reaction was terminated with VER (20 ng/mL) in ESI+ mode and CLP (200 ng/mL) in ESI− mode. In the ex vivo experiments, the activity of enzymes was measured by quantifying the production of various metabolites (nM/mg protein/min). The metabolites and their corresponding enzymes are as follows: APAP from PH, 4-OH-DIC from DIC, 4-OH-MP from MP, DXO from DM, 6-OH-CZX from CZX, 6-OH-Tes from Tes, SN38-G from SN38, CACD-G from CACD, Sero-G from Sero, Prop-G from Prop. The measurements were performed using multiple reaction monitoring (MRM) transitions, which are specific mass spectrometry transitions used for quantification. […]
as §2

[2] = Pharmacokinetics studies in mice (plasma); type: in vivo
Procedure: Mice were fasted for 12 h with access to water before drug administration. N-Hydap was dissolved in a solution containing 50% methanol and water. Before administration, the drug was diluted with PBS to achieve concentrations of 5 mg/kg and 2 mg/kg for gastric gavage and tail vein administration, respectively. Blood samples (120 μL) were collected from the orbital venous plexus at 2, 5, 10, 15, 30, 60, 90, 120, 180, and 240 min after N-hydap administration. The blood samples were collected into heparinized micro-centrifuge tubes and immediately centrifuged at 8000 rpm for 5 min at 4 °C. Plasma samples were prepared by adding an internal standard (IS) solution, Tes to the samples, followed by vortexing. The mixtures were then centrifuged at 4 °C and 13,000 rpm for 15 min. The resulting supernatant was dried under vacuum for 3–4 h, and the dry powder was reconstituted with a solution of 50% methanol and water. Finally, the plasma samples were analyzed using LC–MS, following the previously described method.
DAS 2.0 was used to calculate pharmacokinetic parameters using the standard non-compartmental method. All results were presented as mean ± standard deviation and significant differences were analyzed using One-way ANOVA by GraphPad Prism 8. Statistical significance was defined as p < 0.05.

Cyp2b10 = assay: Real-time PCR mRNA level after 7 days gavage: Cyp2b10; type: in vivo; conditions: mice, 2, 5, 10 mg/kg p.o. 7 days
Procedure: as §1, §2

[3] = mouse, plasma, iv, mice, tail vein injection 2 mg/kg
[4] = mouse, plasma, mice, oral administration 5 mg/kg

Compound: CC1CCC2C(C=CC(C)C2C(=O)c2c(O)c(C3(O)CCC(O)C4OC43)cn(O)c2=O)C1 (centres unmarked) [N-hydap, N-Hydroxyapiosporamide]
- decrease of mRNA levels of Cyp1a2 (Cyp1a2): 48%
- stability, Accuracy (Bias, %) ([1]; 60 nM, 4℃ for 24h): 102.62%
- stability, Accuracy (Bias, %) ([1]; 60 nM, room temperature for 24h): 103.17%
- stability, Accuracy (Bias, %) ([1]; 150 nM, 4℃ for 24h): 103.40%
- stability, Accuracy (Bias, %) ([1]; 150 nM, room temperature for 24h): 99.13%
- stability, Accuracy (Bias, %) ([1]; 500 nM, 4℃ for 24h): 105.16%
- stability, Accuracy (Bias, %) ([1]; 500 nM, room temperature for 24h): 93.38%
- protein levels of UGT1A1 (Ugt1a1): slightly down-regulated
- UGT1A9 mNA expression (Ugt1a9; Kidney): –
- UGT1A9 mNA expression (Ugt1a9; Liver): –
- mRNA levels of Ugt1a9 (Ugt1a9; mice, 2, 5, 10 mg/kg p.o. 7 days): No significant changes
- CL, experimental results ([2]; Table 4 experimental column): High clearance
- CLz/F ([2]; mice, tail vein injection 2 mg/kg): 31 ± 1 mL/min/kg
- AUC(0-t) [2, 3]: 2.36 µM·h
- Cmax [2, 3]: 4.79 ± 0.726 µM
- Tmax [2, 3]: 3 min
- half-life ([2]; mouse, plasma, iv, mice, tail vein injection 2 mg/kg, read-out: t1/2z): 61.2 ± 14.2 min
- half-life ([2]; mouse, plasma, Table 4 experimental column, read-out: T1/2, experimental results): < 60 min
- bioavailability ([2]; mouse, plasma, mice, oral 5 mg/kg vs tail vein 2 mg/kg, read-out: F (oral bioavailability)): 24%
- AUC(0-t) [2, 4]: 1.41 µM·h
- Cmax [2, 4]: 2.06 ± 0.951 µM
- Tmax [2, 4]: 15 min
- CL/F ([2]; mouse, plasma, mice, oral administration 5 mg/kg, read-out: CLz/F): 134 ± 39 mL/min/kg
- half-life ([2]; mouse, plasma, mice, oral administration 5 mg/kg, read-out: t1/2z): 57.6 ± 12.7 min
- mRNA levels of Cyp2b10 (Cyp2b10; kidneys): slight reduction
- decrease of mRNA levels of Cyp2b10 (Cyp2b10; liver): 35%
